Consider twelve molecules from patent publication EP3409266A1, “ACTIVE INGREDIENT COMBINATIONS OF GLYCERYL GLUCOSIDES AND ONE OR MORE MILD SURFACTANTS” (Beiersdorf AG, priority 2010, dated 2012).

The first data set relates to Kalbserythrozyten. Description: RBC test: haemolysis (release of haemoglobin, H50). It counts as cell-based, Kalb. The following applies: bovine, 10 min, pH 7.4. The text has this:
(§1) Der Standard RBC-Test dient zur Abschätzung von in-vivo Augenschleimhautreizpotentialen von Tensiden und tensidhaltigen Produkten. Das Verfahren beruht auf der Tatsache, dass Tenside stark mit Zellmembranen und Proteinen interagieren. Beide Effekte werden photometrisch durch Analyse des natürlichen Blutfarbstoffs Oxyhämoglobin ([…]) bestimmt. Im Gegensatz zu anderen zellbasierten Systemen ist der RBC-Test in der Lage zwischen Schädigungen der Zellmembran (Hämolyse) und Proteindenaturierung (Denaturierungsindex) zu differenzieren.
Ein definiertes Aliquot isolierter Kalbserythrozyten wird mit einer Reihe steigender Konzentrationen des zu untersuchenden Musters (Stammlösung für Rohstoffe 0,1 Gew.-% Aktivgehalt der waschaktiven Substanz in PBS; Stammlösung für Fertigprodukte 1:100 w/v in PBS) für 10 Minuten unter Schütteln bei RT inkubiert. PBS ist ein üblicher Standard-PhosphatPuffer (pH 7,4) mit folgender Zusammensetzung:
Die Inkubationsperiode wird durch schnelle Hochgeschwindigkeitszentrifugation beendet. Nach Zentrifugation werden die gewonnenen Überstände photometrisch auf ihren Gehalt an freigesetztem Hämoglobin (HbO2) bei 530 nm analysiert. Daraus wird der relative Hämolysegrad berechnet und die Konzentrations-Response-Kurve mit dem H50-Wert [µl/ml] als Kenngröße bestimmt. Dieser gibt die Konzentration des Prüfmusters an, bei der 50% des Hämoglobins freigesetzt werden. Je höher der Wert, desto verträglicher ist das untersuchte Muster.
As for Laurylglucosid, the H50 is 84,1 µl/ml.

Turning to Decylglucosid, the H50 was 127,7 µl/ml.

Regarding Dinatriumcocoylglutamat, the H50 is reported as 136,6 µl/ml.

In the case of `CCCCCCCCCCCC(=O)NC(CCC(=O)O)C(=O)O` (centres unmarked) [Natriumlauroylglutamat], the H50 is listed as 312,3 µl/ml.

Molecule Natriumcocoamphoacetat yielded an H50 of 26 µl/ml.

In the case of “Dinatrium PEG-5 Laurylcitratsulfosuccinat”, the H50 is on record as 645 µl/ml.

In the case of Dinatriumcocoamphodiacetat, the H50 is 36,4 µl/ml.

Turning to Cocamidopropylbetain, the H50 is 56,1 µl/ml.

For the molecule Dinatriumlaurylethersulfosuccinat, the H50 was 167,7 µl/ml.

As for PEG-7 Glycerylcocoat, the H50 is recorded as 115,2 µl/ml.

The same data set, now with this note: raw material, stock 0,1 Gew.-% active content in PBS, 10 min, RT; higher = better tolerated.
`CCCCCCCCCCCC(=O)N(C)CC(=O)O` [Natriumlauroylsarcosinat]: the H50 came to 458 µl/ml.

The next data set deals with T1, HbO2 (Bos taurus, UniProt P01966+P02070).
T1 construct: wird im Vergleich zum nativen HbO2 gemessen; endogenous in cells; host or cells: isolated calf erythrocytes (Kalbserythrozyten)
T1 sequence (P01966 2-142 limits assumed): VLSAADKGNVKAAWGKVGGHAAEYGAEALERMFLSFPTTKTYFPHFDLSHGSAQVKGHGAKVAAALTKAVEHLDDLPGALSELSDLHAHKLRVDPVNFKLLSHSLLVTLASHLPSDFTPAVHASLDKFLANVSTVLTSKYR
T1 sequence (P02070 whole entry): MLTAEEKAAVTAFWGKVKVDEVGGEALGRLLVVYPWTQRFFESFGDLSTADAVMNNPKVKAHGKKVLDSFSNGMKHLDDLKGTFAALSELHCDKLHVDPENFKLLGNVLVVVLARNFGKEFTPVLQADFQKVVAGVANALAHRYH
Nature of the data set: RBC test: HbO2 denaturation (denaturation index DI). It counts as cell-based. The following applies: raw material 0,1 Gew.-% active content in PBS, 10 min, RT; 100% standard Natriumlaurylsulfat; lower = better tolerated.
Source text: as §1
Ein definiertes Aliquot isolierter Kalbserythrozyten wird mit einer fixen Konzentration des Prüfmusters (Konzentration für Rohstoffe 0,1 Gew.-% Aktivgehalt der waschaktiven Substanz in PBS; Konzentration für Fertigprodukte 1% w/v in PBS) für 10 Minuten unter Schütteln bei RT inkubiert und dann zentrifugiert. Die Änderung der spektralen Absorption bei 575 nm und 540 nm wird im Vergleich zum nativen HbO2 gemessen. Aus dem Verhältnis der Absorptionswerte zueinander wird der Denaturierungsindex DI [%] berechnet. Als 100%-Standard dient Natriumlaurylsulfat (0,1% Aktivgehalt).
Je geringer der Wert, desto verträglicher ist das untersuchte Muster.
Regarding Laurylglucosid, the DI is reported as 3,2%.

For `CCCCCCCCCCCC(=O)N(C)CC(=O)O` [Natriumlauroylsarcosinat], the DI is recorded as 58,4%.

In the case of Decylglucosid, the DI is listed as 3,9%.

As for Dinatriumcocoylglutamat, the DI is 77,9%.

In the case of `CCCCCCCCCCCC(=O)NC(CCC(=O)O)C(=O)O` (centres unmarked) [Natriumlauroylglutamat], the DI is recorded as 10,5%.

For the molecule Natriumcocoamphoacetat, the DI amounted to 1%.

On to “Dinatrium PEG-5 Laurylcitratsulfosuccinat”, for which the DI was 5,5%.

Consider Dinatriumcocoamphodiacetat, for which the DI was 1,5%.

For Cocamidopropylbetain, the DI is 2,6%.

For Dinatriumlaurylethersulfosuccinat, the DI was 40,4%.

For PEG-7 Glycerylcocoat, the DI is recorded as 4,9%.

A further data set deals with Kalbserythrozyten.
Test: not given
It counts as cell-based, Kalb.
Conditions: not given
Source text: Die Milde eines Tensides oder Tensidsystems lässt sich durch die Bestimmung der Quotienten aus Hämolysewert und Denaturierungsindex charakterisieren. Der Quotient L/D repräsentiert das Verhältnis von Hämolysewert (L) zu Denaturierungsindex (D) und wird durch den Standard RBC-Test bestimmt.
as §1
Der Quotient (L/D-Wert) stellt das Verhältnis der Kenngrößen von Hämolyse (H50) und Denaturierung (DI) dar und wird zur Charakterisierung und Klassifizierung der untersuchten Prüfmuster verwendet.
Tenside oder Tensidmischungen werden erfindungsgemäß als mild angesehen, wenn der L/D-Wert mindestens 1 beträgt. Zum Vergleich dazu hat das häufig in Reinigungsprodukten eingesetzte Natriumlaurylethersulfat einen L/D-Wert von ca. 0,3 und wird als reizend klassifiziert. Sofern in einer Tensidmischung Natriumlaurylethersulfat eingesetzt wird, hat die resultierende Tensidmischung erfindungsgemäß einen L/D-Wert von mindestens 1.
Turning to Laurylglucosid, the L/D was 20,4.

As for “Natriumlaurylethersulfat [reference compound]”, the “Klassifizierung nach L/D-Wert” value is listed as “reizend” and the L/D result is reported as “ca. 0,3”.

For `CCCCCCCCCCCC(=O)N(C)CC(=O)O` [Natriumlauroylsarcosinat], the L/D is reported as 7,84.

As for Decylglucosid, the L/D was 33,4.

Regarding Dinatriumcocoylglutamat, the L/D is 1,75.

Turning to `CCCCCCCCCCCC(=O)NC(CCC(=O)O)C(=O)O` (centres unmarked) [Natriumlauroylglutamat], the L/D is reported as 29,9.

Molecule Natriumcocoamphoacetat showed a L/D of 26.

In turn, “Dinatrium PEG-5 Laurylcitratsulfosuccinat” had a L/D of 117.

Regarding Dinatriumcocoamphodiacetat, the L/D is listed as 24.

Take Cocamidopropylbetain: the L/D is 21,65.

For Dinatriumlaurylethersulfosuccinat, the L/D is 4,15.

For PEG-7 Glycerylcocoat, the L/D is given as 23,5.
